Measured values as given in US20100273701A1, “USE OF SALUSIN BETA ALONE OR IN COMBINATION WITH OCTREOTIDE AS A THERAPEUTIC AGENT” (priority 2007, published 2010).

System: drug-resistant Mycobacterium tuberculosis
Conditions: 10 micrograms per ml; seven days; strain resistant to PAS, streptomycin and isoniazid

Molecule | inhibition of the growth of Mycobacterium tuberculosis
C[C@@H](O)[C@@H]1NC(=O)[C@H](CCCCN)NC(=O)[C@@H](Cc2c[nH]c3ccccc23)NC(=O)[C@H](Cc2ccccc2)NC(=O)[C@@H](NC(=O)[C@H](N)Cc2ccccc2)CSSC[C@@H](C(=O)N[C@H](CO)[C@@H](C)O)NC1=O [Peptide 2, D-Phe-Cys-Phe-D-Trp-Lys-Thr-Cys-L-threoninol] | 100%
Ala-lle-Phe-Ile-Phe-Ile-Arg-Trp-Leu-Leu-Lys-Leu-Gly-His-His-Gly-Arg-Ala-Pro-Pro-OH [Peptide 1] | 100%
